# Read-outs that look alike come from different tables or passages of the source.
# What was measured:
# [1] = biological target: T1, M4 muscarinic receptor (Homo sapiens, UniProt P08173); experiment: Functional mobilization of intracellular calcium (FLIPR, Fluo-3), M4-CHO cells; format: cell-based; conditions: for Emax: read-out: M4 Efficacy
# T1 construct: expressed in transfected cells; host or cells: CHO cells (M4-CHO, under puromycin, zeocin and blasticidin selection)
# T1 sequence (P08173 1-479): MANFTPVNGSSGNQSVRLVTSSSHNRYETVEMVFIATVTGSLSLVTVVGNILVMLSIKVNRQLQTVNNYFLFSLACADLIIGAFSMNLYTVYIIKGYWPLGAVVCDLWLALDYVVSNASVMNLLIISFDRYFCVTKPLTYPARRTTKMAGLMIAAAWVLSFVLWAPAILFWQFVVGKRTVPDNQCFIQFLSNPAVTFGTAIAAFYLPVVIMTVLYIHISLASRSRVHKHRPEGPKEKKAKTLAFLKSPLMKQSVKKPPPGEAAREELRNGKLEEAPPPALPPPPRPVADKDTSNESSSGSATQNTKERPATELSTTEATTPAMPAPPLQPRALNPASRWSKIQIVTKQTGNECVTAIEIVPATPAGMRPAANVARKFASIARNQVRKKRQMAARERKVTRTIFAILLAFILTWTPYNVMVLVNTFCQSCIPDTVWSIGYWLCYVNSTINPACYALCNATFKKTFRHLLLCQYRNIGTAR
# Summary of the method: (§1)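 Fluo-3 read-out, ex 488/em 540 nm, 60 sec on FLIPR 3. For agonist mode, compound added directly; for inhibition, 15 min compound pre-incubation before carbachol at EC80 (added as a 3× solution), or co-application. Buffer pH 7.4 with 1 mM probenecid; DMSO 0.5%.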
# [2] = biological target: T2, M1 muscarinic receptor (Homo sapiens, UniProt P11229); experiment: Functional mobilization of intracellular calcium (FLIPR, Fluo-3), M1-CHO cells; format: cell-based; conditions: for Emax: read-out: M1 Efficacy
# T2 construct: expressed in transfected cells; host or cells: CHO cells (M1-CHO, under zeocin and G418 selection)
# T2 sequence (P11229 1-460): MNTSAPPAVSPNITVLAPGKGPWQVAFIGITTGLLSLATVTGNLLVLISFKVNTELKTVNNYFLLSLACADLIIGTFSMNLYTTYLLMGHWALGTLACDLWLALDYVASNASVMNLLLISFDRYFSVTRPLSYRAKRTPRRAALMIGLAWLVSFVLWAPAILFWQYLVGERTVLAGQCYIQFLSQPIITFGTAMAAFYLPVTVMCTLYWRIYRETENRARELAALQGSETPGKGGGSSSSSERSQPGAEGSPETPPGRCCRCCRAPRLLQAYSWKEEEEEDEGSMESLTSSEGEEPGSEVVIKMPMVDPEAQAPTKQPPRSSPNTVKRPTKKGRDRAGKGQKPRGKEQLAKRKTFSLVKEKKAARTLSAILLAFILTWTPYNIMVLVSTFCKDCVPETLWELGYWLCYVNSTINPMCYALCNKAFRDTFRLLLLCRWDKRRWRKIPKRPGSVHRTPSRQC
# Summary of the method: as §1
# [3] = compound nos. 1-454, 100% efficacy is the maximum response obtained with the Carbachol control
# [4] = compound nos. 455-509, 100% efficacy is the maximum response obtained with the Carbachol control
Compound,M4 Activity ([1]; compound nos. 1-454),"Emax [1, 3] [%]",M1 Activity ([2]; compound nos. 1-454),"Emax [2, 3] [%]","M4 Efficacy [1, 3]","M1 Efficacy [2, 3]","Emax [1, 4] [%]",M4 Activity ([1]; compounds 455-509),"Emax [2, 4] [%]",M1 Activity ([2]; compounds 455-509)
CN(C)C(=O)N1CC2(CCN(C3CCN(c4nccs4)CC3)CC2)c2cc(F)ccc21 [compound 447],+++ (activity was measured to be less than or equal to 0.1 μM),55 to 70,+++ (activity was measured to be less than or equal to 0.7 μM),65 to 85,,,,,,
CN(C)C(=O)N1CC2(CCN(CC3CCN(c4cnccn4)C3)CC2)c2cc(F)ccc21 (centres unmarked) [compound 448],+++ (activity was measured to be less than or equal to 0.1 μM),55 to 70,+++ (activity was measured to be less than or equal to 0.7 μM),> 85,,,,,,
CN(C)C(=O)N1CC2(CCN(CC3CCN(c4cnccn4)C3)CC2)c2cc(F)ccc21 (centres unmarked) [compound 449],+++ (activity was measured to be less than or equal to 0.1 μM),,+++ (activity was measured to be less than or equal to 0.7 μM),,++ (efficacy was calculated to be between 70% and 55%),++ (efficacy was calculated to be between 85% and 65%),,,,
CN(C)C(=O)N1CC2(CCN(CC3CCN(c4nccs4)C3)CC2)c2cc(F)ccc21 (centres unmarked) [compound 450],+++ (activity was measured to be less than or equal to 0.1 μM),55 to 70,++ (activity was measured to be between 0.7 μM and 3.0 μM),65 to 85,,,,,,
CN(C)C(=O)N1CC2(CCN(CC3CCN(c4nccs4)C3)CC2)c2cc(F)ccc21 (centres unmarked) [compound 451],+++ (activity was measured to be less than or equal to 0.1 μM),,++ (activity was measured to be between 0.7 μM and 3.0 μM),,,,,,,
CN(C)C(=O)N1CC2(CCN(C3CCN(c4ccccn4)CC3)CC2)c2cc(F)ccc21 [compound 452],+++ (activity was measured to be less than or equal to 0.1 μM),55 to 70,++ (activity was measured to be between 0.7 μM and 3.0 μM),65 to 85,,,,,,
CN(C)C(=O)N1CC2(CCN(C3CCN(c4cccnc4)CC3)CC2)c2cc(F)ccc21 [compound 453],+++ (activity was measured to be less than or equal to 0.1 μM),55 to 70,+++ (activity was measured to be less than or equal to 0.7 μM),65 to 85,,,,,,
CCc1nsc(N2CCC(N3CCC4(CCN(C(=O)N(C)C)c5ccccc54)CC3)CC2)n1 [compound 455],,,,,,,25 to 100,++ (activity was measured to be between 2.0 μM and 5.0 μM),> 100,+++ (activity was measured to be less than or equal to 2.0 μM)
CC(=O)N1CCC2(CCN(C3CCN(c4cnc5ccccc5n4)CC3)CC2)c2ccccc21 [compound 456],,,,,,,25 to 100,++ (activity was measured to be between 2.0 μM and 5.0 μM),> 100,++ (activity was measured to be between 2.0 μM and 5.0 μM)
CN(C)C(=O)N1CCC2(CCN(C3CCN(c4cnccn4)CC3)CC2)c2ccccc21 [compound 457],,,,,,,25 to 100,++ (activity was measured to be between 2.0 μM and 5.0 μM),> 100,+++ (activity was measured to be less than or equal to 2.0 μM)
Cc1nsc(N2CCC(N3CCC4(CC3)CN(C(=O)N(C)C)c3ccccc34)CC2)n1 [compound 458],,,,,,,> 100,++ (activity was measured to be between 2.0 μM and 5.0 μM),> 100,+++ (activity was measured to be less than or equal to 2.0 μM)
CCCc1cnc(N2CCC(N3CCC4(CC3)CN(C(=O)N(C)C)c3ccccc34)CC2)cn1 [compound 459],,,,,,,25 to 100,++ (activity was measured to be between 2.0 μM and 5.0 μM),> 100,++ (activity was measured to be between 2.0 μM and 5.0 μM)
CN(C)C(=O)N1CC2(CCN(C3CCN(c4cnc5ccccc5n4)CC3)CC2)c2cc(F)ccc21 [compound 460],,,,,,,25 to 100,++ (activity was measured to be between 2.0 μM and 5.0 μM),> 100,+++ (activity was measured to be less than or equal to 2.0 μM)
Cc1ncc(N2CCC(N3CCC4(CCN(C(=O)N(C)C)c5ccccc54)CC3)CC2)nc1C [compound 461],,,,,,,25 to 100,++ (activity was measured to be between 2.0 μM and 5.0 μM),> 100,++ (activity was measured to be between 2.0 μM and 5.0 μM)
Cc1ccc(N2CCC(N3CCC4(CC3)CN(C(=O)N(C)C)c3ccc(F)cc34)CC2)nn1 [compound 462],,,,,,,< 25,++ (activity was measured to be between 2.0 μM and 5.0 μM),25 to 100,+ (activity was measured to be greater than or equal to 5.0 μM)
CC(=O)N1CCC2(CCN(C3CCN(c4cnccn4)CC3)CC2)c2ccccc21 [compound 463],,,,,,,25 to 100,++ (activity was measured to be between 2.0 μM and 5.0 μM),> 100,+++ (activity was measured to be less than or equal to 2.0 μM)
CN(C)C(=O)N1CC2(CCN(C3CCN(c4cnccn4)CC3)CC2)c2ccccc21 [compound 464],,,,,,,> 100,++ (activity was measured to be between 2.0 μM and 5.0 μM),> 100,+++ (activity was measured to be less than or equal to 2.0 μM)
CN(C)C(=O)N1CC2(CCN(C3(C)CCN(c4cnccn4)CC3)CC2)c2ccccc21 [compound 465],,,,,,,25 to 100,++ (activity was measured to be between 2.0 μM and 5.0 μM),> 100,++ (activity was measured to be between 2.0 μM and 5.0 μM)
CCc1cnc(N2CCC(N3CCC4(CC3)CN(C(=O)N(C)C)c3ccccc34)CC2)cn1 [compound 466],,,,,,,25 to 100,++ (activity was measured to be between 2.0 μM and 5.0 μM),> 100,++ (activity was measured to be between 2.0 μM and 5.0 μM)
CN(C)C(=O)N1CC2(CCN(C3CCN(c4cnc(-c5ccncc5)cn4)CC3)CC2)c2ccccc21 [compound 467],,,,,,,25 to 100,+ (activity was measured to be greater than or equal to 5.0 μM),> 100,+++ (activity was measured to be less than or equal to 2.0 μM)
Cc1cnc(N2CCC(N3CCC4(CC3)CN(C(=O)N(C)C)c3ccccc34)CC2)cn1 [compound 468],,,,,,,25 to 100,++ (activity was measured to be between 2.0 μM and 5.0 μM),> 100,+ (activity was measured to be greater than or equal to 5.0 μM)
CN(C)C(=O)N1CC2(CCN(C3CCN(c4cncc(Cl)n4)CC3)CC2)c2ccccc21 [compound 469],,,,,,,25 to 100,++ (activity was measured to be between 2.0 μM and 5.0 μM),> 100,+++ (activity was measured to be less than or equal to 2.0 μM)
CC(=O)N1CC2(CCN(C3CCN(c4cncc(C)n4)CC3)CC2)c2ccccc21 [compound 470],,,,,,,25 to 100,++ (activity was measured to be between 2.0 μM and 5.0 μM),> 100,+++ (activity was measured to be less than or equal to 2.0 μM)
CC(=O)N1CC2(CCN(C3CCN(c4cnc(C)c(C)n4)CC3)CC2)c2ccccc21 [compound 471],,,,,,,25 to 100,++ (activity was measured to be between 2.0 μM and 5.0 μM),> 100,++ (activity was measured to be between 2.0 μM and 5.0 μM)
Cc1ncc(N2CCC(N3CCC4(CC3)CN(C(=O)N(C)C)c3ccc(F)cc34)CC2)nc1C [compound 472],,,,,,,25 to 100,++ (activity was measured to be between 2.0 μM and 5.0 μM),> 100,+++ (activity was measured to be less than or equal to 2.0 μM)

# Reference: patent publication US7858635B2 (priority 2005, dated 2010)
